From patent US11279714B2, “Anti-infective compounds” (priority 2014, dated 2022)
Values after ≈ are worked out from the molar mass of the structure shown.

Assays:
[1] = tested on: M. tuberculosis H37Rv expressing the green fluorescent protein (H37Rv-GFP); test: microbe, parasite or virus in culture; type: cell-based; conditions: Mycobacterium tuberculosis, H37RV, 120 h; read-out: QUM (MIC50)
[2] = tested on: Raw 264.7 cells infected with H37Rv-GFP; test: microbe, parasite or virus in culture; type: cell-based, M. tuberculosis; conditions: Mycobacterium tuberculosis, H37RV, 120 h; read-out: QIM (MIC50)

Structure (SMILES) | MIC50 [1] [µM] | MIC50 [2] [µM] | melting point [°C]
Cc1nc2cc(NC(=O)c3cc4sc(N5CCC(O)CC5)nc4s3)ccc2o1 [Compound 122] | < 1 | < 1 | 238.5
Cc1nc2cc(NC(=O)c3cc4sc(N5CC(C)OC(C)C5)nc4s3)ccc2o1 (stereo not drawn) [Compound 180] | 1 to 20 (≈ 0.429 to 8.57 µg/mL) | < 1 | 274
O=C(Nc1ccc(OCc2ccccc2)cc1)c1cc2nc(N3CCCCC3)sc2s1 [Compound 11] | > 20 | > 20 | 223
COc1ccc(CNC(=O)c2cc3sc(N4CCCCC4)nc3s2)cc1 [Compound 59] | > 20 | > 20 | 142
COc1ncc(NC(=O)c2cc3sc(N4CCCCC4)nc3s2)cn1 [Compound 55] | > 20 | < 1 | 219
Cc1nc2cc(NC(=O)c3cc4sc(N5CCC(COc6ccc(Cl)cc6)CC5)nc4s3)ccc2o1 [Compound 195] | > 20 | < 1 | 256
CCC1COCCN1c1nc2sc(C(=O)Nc3ccc4oc(C)nc4c3)cc2s1 (stereo not drawn) [Compound 151] | 1 to 20 (≈ 0.429 to 8.57 µg/mL) | < 1 | 176
CCN(CC)C(=O)c1cc2sc(N3CCCCC3)nc2s1 [Compound 57] | 1 to 20 (≈ 0.323 to 6.47 µg/mL) | 1 to 20 (≈ 0.323 to 6.47 µg/mL) | 84
O=C(Nc1ccccc1)c1cc2sc(N3CCCCC3)nc2s1 [Compound 46] | 1 to 20 (≈ 0.343 to 6.87 µg/mL) | < 1 | 259.1
O=C(Nc1ccc(-c2cc[nH]n2)cc1)c1cc2sc(N3CCOCC3)nc2s1 [Compound 156] | 1 to 20 (≈ 0.412 to 8.23 µg/mL) | < 1 | 319
COC1CCN(c2nc3sc(C(=O)Nc4ccc5oc(C)nc5c4)cc3s2)CC1 [Compound 124] | < 1 | < 1 | 237.9
COc1cc(NC(=O)c2cc3sc(N4CCCCC4)nc3s2)cc(OC)c1 [Compound 37] | > 20 | > 20 | 148
COc1ccc(NC(=O)c2cc3sc(N)nc3s2)cc1 [Compound 64] | > 20 | 1 to 20 (≈ 0.305 to 6.11 µg/mL) | 260
COc1ccc(NC(=O)c2cc3sc(N4CCCC(N)C4)nc3s2)cc1 (stereo not drawn) [Compound 119] | > 20 | < 1 | 232
Cc1nc2c(NC(=O)c3cc4sc(N5CCOCC5)nc4s3)cccc2o1 [Compound 102] | > 20 | > 20 | 209.3
O=C(Nc1ccccc1)c1cc2nc(N3CCCCC3)sc2s1 [Compound 25] | > 20 | 1 to 20 (≈ 0.343 to 6.87 µg/mL) | 222.6
COc1ccc(CCNC(=O)c2cc3sc(N4CCCCC4)nc3s2)cc1 [Compound 42] | 1 to 20 (≈ 0.402 to 8.03 µg/mL) | < 1 | 177.2
COc1ccc(NC(=O)c2cc3sc(N4CCN(C)CC4)nc3s2)cc1 [Compound 110] | 1 to 20 (≈ 0.389 to 7.77 µg/mL) | < 1 | 219.8
COc1ccc(NC(=O)c2cc3sc(N4CCC(C(N)=O)CC4)nc3s2)cc1 [Compound 126] | 1 to 20 (≈ 0.417 to 8.33 µg/mL) | > 20 | 276.1

Structure (SMILES) | MIC50 [1] [µM] | MIC50 [2] [µM] | melting point [°C]
Cc1nc2ccc(NC(=O)c3cc4sc(N5CCOCC5)nc4s3)cc2o1 [Compound 85] | < 1 | < 1 | 273.6
Cc1cc2cc(NC(=O)c3cc4sc(N5CCOCC5)nc4s3)ccc2o1 [Compound 135] | 1 to 20 (≈ 0.399 to 7.99 µg/mL) | < 1 | 231.3
O=C(Nc1ccc(Cl)cc1)c1cc2nc(N3CCCCC3)sc2s1 [Compound 29] | 1 to 20 (≈ 0.378 to 7.56 µg/mL) | 1 to 20 (≈ 0.378 to 7.56 µg/mL) | 230
COc1ccc(OCCNC(=O)c2cc3sc(N4CCOCC4)nc3s2)cc1 [Compound 82] | > 20 | 1 to 20 (≈ 0.42 to 8.39 µg/mL) | 172.1
CC(C)(C)OC(=O)n1ncc2cc(NC(=O)c3cc4sc(N5CCOCC5)nc4s3)ccc21 [Compound 88] | > 20 | > 20 | 331.7
O=C(c1cc2sc(N3CCOCC3)nc2s1)N1CCC(Cc2ccc(Cl)cc2)CC1 [Compound 173] | > 20 | > 20 | 167.2
COc1ccc(NC(=O)c2cc3sc(N4CCC(C(=O)N(C)C)CC4)nc3s2)cc1 [Compound 127] | < 1 | < 1 | 273.4
Cc1nc2cc(NC(=O)c3cn4nc(N5CCOCC5)sc4n3)ccc2o1 [Compound 189] | > 20 | > 20 | 311
O=C1Cc2cc(NC(=O)c3cc4nc(N5CCCCC5)sc4s3)ccc2N1 [Compound 23] | > 20 | > 20 | 260
COc1ccc(NC(=O)c2cc3sc(N4CCCC4)nc3s2)cc1 [Compound 78] | < 1 | < 1 | 274.4
COc1ccc(NC(=O)c2cc3nc(N4CCCCC4)sc3s2)cn1 [Compound 10] | > 20 | > 20 | 270
Cc1nc2cc(NC(=O)c3cc4sc(N5CCOC(C(=O)N(C)C)C5)nc4s3)ccc2o1 (stereo not drawn) [Compound 169] | 1 to 20 (≈ 0.472 to 9.43 µg/mL) | 1 to 20 (≈ 0.472 to 9.43 µg/mL) | 247.5
COc1ccc(NCc2cc3sc(N4CCCCC4)nc3s2)cc1 [Compound 69] | > 20 | > 20 | 105
O=C(Nc1ccc(F)cc1)c1cc2sc(N3CCNCC3)nc2s1 [Compound 139] | 1 to 20 (≈ 0.362 to 7.25 µg/mL) | 1 to 20 (≈ 0.362 to 7.25 µg/mL) | 247.5
O=C(Nc1cccc(Oc2ccccc2)c1)c1cc2sc(N3CCOCC3)nc2s1 [Compound 87] | 1 to 20 (≈ 0.438 to 8.75 µg/mL) | 1 to 20 (≈ 0.438 to 8.75 µg/mL) | 169.5
O=C(Nc1ccc2[nH]ncc2c1)c1cc2sc(N3CCOCC3)nc2s1 [Compound 89] | > 20 | > 20 | 329.8
COc1ccc(NC(=O)c2ccc3nc(N4CCCCC4)ccc3c2)cc1 [Compound 17] | 1 to 20 (≈ 0.361 to 7.23 µg/mL) | > 20 | 209
O=C(Nc1ccc(F)c(F)c1)c1cc2nc(N3CCCCC3)sc2s1 [Compound 3] | 1 to 20 (≈ 0.379 to 7.59 µg/mL) | < 1 | 246.3
COc1ccc(NC(=O)c2csc3nc(N4CCCCC4)sc23)cc1 [Compound 73] | > 20 | > 20 | 209.8

Structure (SMILES) | MIC50 [1] [µM] | MIC50 [2] [µM] | melting point [°C]
CCN(Cc1ccc(OC)cc1)c1nc2sc(C(=O)Nc3ccc(OC)cc3)cc2s1 [Compound 114] | 1 to 20 (≈ 0.454 to 9.07 µg/mL) | < 1 | 112
Cc1nc2cc(NC(=O)c3cc4sc(N(C)CCO)nc4s3)ccc2o1 [Compound 201] | < 1 | 1 to 20 (≈ 0.388 to 7.77 µg/mL) | 226.3
Cc1ccc(-c2ccc(NC(=O)c3cc4sc(N5CCOCC5)nc4s3)cc2)cn1 [Compound 161] | > 20 | < 1 | 292
Cc1nc2cc(NC(=O)c3cc4sc(N5CCOC(c6ccccc6)C5)nc4s3)ccc2o1 (stereo not drawn) [Compound 174] | 1 to 20 (≈ 0.477 to 9.53 µg/mL) | < 1 | 223.5
O=C(Nc1ccc(CN2CCN(c3ccc(Cl)cc3)CC2)cc1)c1cc2sc(N3CCOCC3)nc2s1 [Compound 199] | 1 to 20 (≈ 0.554 to 11.1 µg/mL) | < 1 | 249.9
N#Cc1ccc(NC(=O)c2cc3sc(N4CCCCC4)nc3s2)cc1 [Compound 54] | < 1 | < 1 | 177
Cc1nn(C)cc1-c1ccc(NC(=O)c2cc3sc(N4CCOCC4)nc3s2)cc1 [Compound 167] | 1 to 20 (≈ 0.44 to 8.79 µg/mL) | < 1 | 245
COc1ccc(NC(=O)c2cc3sc(N4CCC4)nc3s2)cc1 [Compound 80] | 1 to 20 (≈ 0.345 to 6.91 µg/mL) | < 1 | 256
O=C(Nc1ccc(F)cc1)c1cc2sc(N3CCCCC3)nc2s1 [Compound 53] | < 1 | < 1 | 233
N#Cc1ccc(NC(=O)c2cc3sc(N4CCOCC4)nc3s2)cc1 [Compound 112] | > 20 | < 1 | 212
O=C(Nc1cc(-c2ccccc2)[nH]n1)c1cc2sc(N3CCOCC3)nc2s1 [Compound 160] | > 20 | < 1 | 305
O=C(Nc1ccc(Oc2ccc(Cl)cc2)cc1)c1cc2sc(N3CCOCC3)nc2s1 [Compound 146] | 1 to 20 (≈ 0.472 to 9.44 µg/mL) | < 1 | 225
O=C(Nc1ccc(F)nc1)c1cc2sc(N3CCOCC3)nc2s1 [Compound 84] | < 1 | < 1 | 262.3
O=C(Nc1ccc(Cl)cc1)c1cc2sc(N3CCCCC3)nc2s1 [Compound 45] | 1 to 20 (≈ 0.378 to 7.56 µg/mL) | < 1 | 275.2
O=C(Nc1ccc(N2CCC(c3ccc(Cl)cc3)CC2)cc1)c1cc2sc(N3CCOCC3)nc2s1 [Compound 190] | > 20 | > 20 | 281.1
Cn1ccc(-c2ccc(NC(=O)c3cc4sc(N5CCOCC5)nc4s3)cc2)n1 [Compound 145] | 1 to 20 (≈ 0.426 to 8.51 µg/mL) | < 1 | 314
CN(C)C(=O)C1CCN(c2nc3sc(C(=O)Nc4ccc(F)cc4)cc3s2)CC1 [Compound 136] | < 1 | < 1 | 296.2
COc1ccc(NC(=O)c2cc3sc(N4CCCC(O)C4)nc3s2)cc1 (stereo not drawn) [Compound 96] | < 1 | < 1 | 238
O=C(Nc1cccc(OCc2ccccc2)c1)c1cc2sc(N3CCOCC3)nc2s1 [Compound 109] | > 20 | > 20 | 223.4
